Laboratory results reported in the NIST ThermoML archive (doi:10.1021/je400415r).

Test: mn = molality of the nth substance listed, in mol/kg
Settings: 101 kPa, Liquid; for speed of sound: Pulse-echo method; for mass density: Vibrating tube method

NCC(=O)O [2-aminoacetic acid] + O
Settings	mass density, 288.15 K [kg/m3]	mass density, 298.15 K [kg/m3]	mass density, 308.15 K [kg/m3]	mass density, 318.15 K [kg/m3]	speed of sound, 288.15 K [m/s]	speed of sound, 298.15 K [m/s]	speed of sound, 308.15 K [m/s]	speed of sound, 318.15 K [m/s]
m1 = 0.04998	1000.77	998.679	995.632	991.792	1469.2	1499.4	1522.2	1538.6
m1 = 0.1399	1003.74	1001.58	998.484	994.608	1474.3	1504.2	1526.8	1543
m1 = 0.2276	1006.6	1004.38	1001.24	997.323	1479.2	1508.8	1531.1	1547.1
m1 = 0.4056	1012.27	1009.94	1006.71	1002.72	1488.9	1517.9	1539.7	1555.4
m1 = 0.5835	1017.82	1015.36	1012.04	1007.99	1498.4	1526.8	1548.2	1563.5
m1 = 0.7602	1023.19	1020.62	1017.22	1013.1	1507.6	1535.4	1556.3	1571.3
m1 = 0.9386	1028.48	1025.81	1022.32	1018.13	1516.7	1543.9	1564.4	1579
m1 = 1.117	1033.62	1030.85	1027.28	1023.04	1525.5	1552.2	1572.2	1586.4
m1 = 1.296	1038.69	1035.81	1032.17	1027.84	1534.1	1560.3	1579.8	1593.7

CCC(N)C(=O)O (stereo not drawn) [(.+-.)-α-aminobutyric acid] + O
Settings	mass density, 288.15 K [kg/m3]	mass density, 298.15 K [kg/m3]	mass density, 308.15 K [kg/m3]	mass density, 318.15 K [kg/m3]	speed of sound, 288.15 K [m/s]	speed of sound, 298.15 K [m/s]	speed of sound, 308.15 K [m/s]	speed of sound, 318.15 K [m/s]
m1 = 0.04996	1000.54	998.441	995.405	991.565	1470.8	1500.8	1523.5	1539.8
m1 = 0.1498	1003.36	1001.19	998.105	994.226	1479.5	1508.9	1530.9	1546.7
m1 = 0.2141	1005.15	1002.92	999.815	995.911	1485.2	1513.8	1535.7	1551.1
m1 = 0.4366	1011.15	1008.79	1005.56	1001.57	1504.2	1531.5	1551.8	1566
m1 = 0.6599	1016.91	1014.4	1011.06	1006.99	1522.7	1548.4	1567.4	1580.5
m1 = 0.8834	1022.42	1019.77	1016.34	1012.18	1540.7	1564.9	1582.6	1594.5
m1 = 1.106	1027.68	1024.9	1021.35	1017.13	1558	1580.7	1597.2	1608
m1 = 1.33	1032.73	1029.83	1026.17	1021.87	1574.8	1596.1	1611.3	1621
m1 = 1.552	1037.55	1034.52	1030.77	1026.4	1590.9	1610.8	1624.8	1633.5
m1 = 1.774	1042.19	1039.05	1035.2	1030.74	1606.6	1625.1	1637.8	1645.5
m1 = 1.998	1046.67	1043.4	1039.51	1034.95	1621.7	1638.9	1650.5	1657.1

CCCC(N)C(=O)O (stereo not drawn) [DL-2-aminopentanoic acid] + O
Settings	mass density, 288.15 K [kg/m3]	mass density, 298.15 K [kg/m3]	mass density, 308.15 K [kg/m3]	mass density, 318.15 K [kg/m3]	speed of sound, 288.15 K [m/s]	speed of sound, 298.15 K [m/s]	speed of sound, 308.15 K [m/s]	speed of sound, 318.15 K [m/s]
m1 = 0.04497	1000.31	998.222	995.183	991.346	1471.3	1501.2	1523.8	1540
m1 = 0.05999	1000.71	998.611	995.564	991.721	1473	1502.7	1525.1	1541.2
m1 = 0.07998	1001.24	999.126	996.069	992.218	1475.1	1504.6	1526.9	1542.8
m1 = 0.09499	1001.63	999.511	996.447	992.59	1476.7	1506.1	1528.2	1544
m1 = 0.11	1002.03	999.895	996.823	992.961	1478.3	1507.5	1529.6	1545.2
m1 = 0.125	1002.42	1000.28	997.197	993.329	1479.9	1509	1530.9	1546.4
m1 = 0.14	1002.81	1000.66	997.57	993.697	1481.5	1510.4	1532.2	1547.6
m1 = 0.155	1003.2	1001.04	997.943	994.064	1483.1	1511.9	1533.5	1548.8
m1 = 0.17	1003.59	1001.42	998.314	994.429	1484.6	1513.3	1534.8	1550
m1 = 0.185	1003.98	1001.79	998.684	994.793	1486.2	1514.7	1536.2	1551.2
m1 = 0.2	1004.36	1002.17	999.053	995.156	1487.8	1516.1	1537.5	1552.4

CC(N)C(=O)O (stereo not drawn) [DL-2-aminopropanoic acid] + O
Settings	mass density, 288.15 K [kg/m3]	mass density, 298.15 K [kg/m3]	mass density, 308.15 K [kg/m3]	mass density, 318.15 K [kg/m3]	speed of sound, 288.15 K [m/s]	speed of sound, 298.15 K [m/s]	speed of sound, 308.15 K [m/s]	speed of sound, 318.15 K [m/s]
m1 = 0.04994	1000.59	998.501	995.455	991.617	1469.9	1500	1522.8	1539.1
m1 = 0.1499	1003.53	1001.37	998.271	994.396	1476.9	1506.5	1528.8	1544.8
m1 = 0.2597	1006.7	1004.46	1001.3	997.395	1484.5	1513.5	1535.4	1551
m1 = 0.4797	1012.86	1010.48	1007.21	1003.23	1499.3	1527.4	1548.3	1563.2
m1 = 0.6994	1018.78	1016.26	1012.89	1008.84	1513.8	1540.8	1560.9	1575
m1 = 0.9199	1024.51	1021.85	1018.39	1014.26	1528	1553.9	1573.2	1586.5
m1 = 1.138	1029.97	1027.2	1023.64	1019.43	1541.7	1566.6	1585	1597.7
m1 = 1.36	1035.33	1032.43	1028.77	1024.51	1555.1	1579.1	1596.7	1608.7
m1 = 1.577	1040.37	1037.36	1033.63	1029.29	1568	1591	1607.8	1619.2
m1 = 1.799	1045.37	1042.26	1038.42	1034.03	1580.7	1602.7	1618.9	1629.5
